# According to patent US20240150377A1, “MODULATORS OF CYSTIC FIBROSIS TRANSMEMBRANE CONDUCTANCE REGULATOR” (VERTEX PHARMACEUTICALS INCORPORATED, priority 2020, published 2024):
# Target: T1, CFTR (Homo sapiens, UniProt P13569, DEL508-508)
# T1 construct: endogenous in cells; host or cells: primary human bronchial epithelial cells from CF subjects (F508del/MF-HBE), differentiated at air-liquid interface
# Test: HBE2 assay: Ussing chamber assay of CFTR-mediated short-circuit currents
# Type: cell-based
# Details: 3 μM corrector; F508del/MF-HBE cells; with 44 nM potentiator, 18-24 hours, 20% human serum
# Summary of the method: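 Corrector activity read as CFTR-dependent ISC (μA/cm^2): peak forskolin current minus post-inhibitor steady state. Measured at 37 °C, voltage clamp at 0 mV, on F508del/MF-HBE epithelia grown >14 days air-liquid interface in Ussing chambers.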
# T1 sequence (P13569 with tags, fused parts or gaps DEL508-508): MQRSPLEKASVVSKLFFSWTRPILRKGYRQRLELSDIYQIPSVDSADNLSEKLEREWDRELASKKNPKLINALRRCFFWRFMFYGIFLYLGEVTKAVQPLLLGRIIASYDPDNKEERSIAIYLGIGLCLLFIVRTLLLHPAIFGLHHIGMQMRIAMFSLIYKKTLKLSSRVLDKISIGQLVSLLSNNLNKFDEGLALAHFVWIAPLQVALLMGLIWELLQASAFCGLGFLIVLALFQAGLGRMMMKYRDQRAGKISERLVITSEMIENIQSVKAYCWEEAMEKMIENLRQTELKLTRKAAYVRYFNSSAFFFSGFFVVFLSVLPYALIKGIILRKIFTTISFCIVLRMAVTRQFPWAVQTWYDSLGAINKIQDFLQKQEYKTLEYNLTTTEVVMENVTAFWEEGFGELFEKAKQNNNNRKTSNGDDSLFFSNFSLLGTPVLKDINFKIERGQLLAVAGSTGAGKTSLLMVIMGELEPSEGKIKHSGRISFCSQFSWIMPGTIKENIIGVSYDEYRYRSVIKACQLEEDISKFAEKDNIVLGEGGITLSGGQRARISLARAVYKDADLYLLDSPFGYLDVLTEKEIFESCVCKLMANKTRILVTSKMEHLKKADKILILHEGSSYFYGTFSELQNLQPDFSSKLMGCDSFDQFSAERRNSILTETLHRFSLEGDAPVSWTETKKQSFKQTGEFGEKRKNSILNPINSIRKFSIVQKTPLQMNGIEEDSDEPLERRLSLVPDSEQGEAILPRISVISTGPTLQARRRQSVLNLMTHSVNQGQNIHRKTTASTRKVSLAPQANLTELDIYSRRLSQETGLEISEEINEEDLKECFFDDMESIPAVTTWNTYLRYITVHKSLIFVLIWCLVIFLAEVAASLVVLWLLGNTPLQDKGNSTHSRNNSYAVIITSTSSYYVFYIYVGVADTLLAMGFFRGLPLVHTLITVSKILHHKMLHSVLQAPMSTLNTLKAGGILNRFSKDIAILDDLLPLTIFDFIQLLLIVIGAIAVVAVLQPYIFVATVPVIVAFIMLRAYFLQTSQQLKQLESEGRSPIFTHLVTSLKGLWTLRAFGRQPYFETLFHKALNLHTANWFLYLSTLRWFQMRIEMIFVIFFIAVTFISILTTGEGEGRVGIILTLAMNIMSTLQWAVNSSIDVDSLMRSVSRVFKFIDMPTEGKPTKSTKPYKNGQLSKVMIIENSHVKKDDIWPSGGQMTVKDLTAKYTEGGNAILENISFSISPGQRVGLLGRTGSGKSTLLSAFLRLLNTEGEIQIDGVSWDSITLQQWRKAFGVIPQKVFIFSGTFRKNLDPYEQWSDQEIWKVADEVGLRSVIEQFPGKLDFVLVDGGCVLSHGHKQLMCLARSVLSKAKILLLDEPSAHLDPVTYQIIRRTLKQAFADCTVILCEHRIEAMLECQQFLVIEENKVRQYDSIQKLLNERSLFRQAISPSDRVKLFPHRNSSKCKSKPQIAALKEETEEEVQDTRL
row,SMILES,HBE2 Activity at 3 μM (%)
1,Cc1cccc(C)c1-c1cc2nc(n1)NS(=O)(=O)c1cccc(c1)C(=O)N(Cc1cncc(N3CC[C@H]4CC[C@H]43)n1)[C@H](CCC(C)(C)C)CO2 (stereo in doubt) [Compound 1855],+++ (+++ is >60+)
2,COC[C@H]1CCCCN1c1cncc(CN2C(=O)c3cccc(c3)S(=O)(=O)Nc3nc(cc(-c4c(C)cccc4C)n3)OC[C@H]2CCC(C)(C)C)n1 (stereo in doubt) [Compound 1856],+++ (+++ is >60+)
3,Cc1cccc(C)c1-c1cc2nc(n1)NS(=O)(=O)c1cccc(c1)C(=O)N(Cc1cncc(C3CCCCO3)n1)[C@H](CCC(C)(C)C)CO2 (stereo in doubt) [Compound 1880],+++ (+++ is >60+)
4,Cc1cccc(C)c1-c1cc2nc(n1)NS(=O)(=O)c1cccc(c1)C(=O)N(Cc1cncc(C3CCCCO3)n1)[C@H](CCC(C)(C)C)CO2 (stereo in doubt) [Compound 1881],+++ (+++ is >60+)
5,Cc1cccc(C)c1-c1cc2nc(n1)NS(=O)(=O)c1cccc(c1)C(=O)N(Cc1cncc(N3CC[C@@H]3C(C)C)n1)[C@H](CC1CCCCC1)CO2 (stereo in doubt) [Compound 1887],+++ (+++ is >60+)
6,CC[C@H]1CCCN1c1cncc(CN2C(=O)c3cccc(c3)S(=O)(=O)Nc3nc(cc(-c4c(C)cccc4C)n3)OC[C@H]2COC2CC2)n1 (stereo in doubt) [Compound 1890],+++ (+++ is >60+)
7,Cc1cccc(C)c1-c1cc2nc(n1)NS(=O)(=O)c1cccc(c1)C(=O)N(Cc1cncc(N3CCC[C@@H]3C3CC3)n1)[C@H](COC1CC1)CO2 (stereo in doubt) [Compound 1891],+++ (+++ is >60+)
8,Cc1cccc(C)c1-c1cc2nc(n1)NS(=O)(=O)c1cccc(c1)C(=O)N(Cc1cncc(N3CCC[C@@H]3C)n1)[C@H](COC1CC1)CO2 (stereo in doubt) [Compound 1892],+++ (+++ is >60+)
9,COCC1CCN1c1cncc(CN2C(=O)c3cccc(c3)S(=O)(=O)Nc3nc(cc(-c4c(C)cccc4C)n3)OC[C@H]2COC2CC2)n1 (stereo in doubt) [Compound 1894],+++ (+++ is >60+)
10,Cc1cccc(C)c1-c1cc2nc(n1)NS(=O)(=O)c1cccc(c1)C(=O)N(Cc1cncc(N(C)C3CCC3)n1)[C@H](C1CC(C)(C)C1)CO2 (stereo in doubt) [Compound 1895],++ (++ is 30-60%)
11,Cc1cccc(C)c1-c1cc2nc(n1)NS(=O)(=O)c1cccc(c1)C(=O)N(Cc1cncc(N(C)C3CCC3)n1)[C@H](C1CC(C)(C)C1)CO2 (stereo in doubt) [Compound 1896],+++ (+++ is >60+)
12,Cc1cccc(C)c1-c1cc2nc(n1)NS(=O)(=O)c1cccc(c1)C(=O)N(Cc1cncc(N3CCCC[C@@H]3C)n1)[C@H](C1CC(C)(C)C1)CO2 (stereo in doubt) [Compound 1897],+ (+ is <300))
13,Cc1cccc(C)c1-c1cc2nc(n1)NS(=O)(=O)c1cccc(c1)C(=O)N(Cc1cncc(N3CCC4CCC43)n1)[C@H](COC1CC1)CO2 (stereo in doubt) [Compound 1909],+++ (+++ is >60+)
14,Cc1cccc(C)c1-c1cc2nc(n1)NS(=O)(=O)c1cccc(c1)C(=O)N(Cc1cnc3cc(C(C)C)n(C)c3n1)[C@H](C[C@H]1CCCOC1)CO2 (stereo in doubt) [Compound 1932],+++ (+++ is >60+)
15,Cc1cccc(C)c1-c1cc2nc(n1)NS(=O)(=O)c1cccc(c1)C(=O)N(Cc1cncc(N(C)C3CCC3)n1)[C@H](C[C@H]1CCCOC1)CO2 (stereo in doubt) [Compound 1938],+++ (+++ is >60+)
16,Cc1cccc(C)c1-c1cc2nc(n1)NS(=O)(=O)c1cccc(c1)C(=O)N(Cc1cncc(N3CCC[C@H]3C)n1)[C@H](C[C@H]1CCCOC1)CO2 (stereo in doubt) [Compound 1940],+++ (+++ is >60+)
17,Cc1cccc(C)c1-c1cc2nc(n1)NS(=O)(=O)c1cccc(c1)C(=O)N(Cc1cncc(N3CCCC[C@H]3C)n1)[C@H](C[C@H]1CCCOC1)CO2 (stereo in doubt) [Compound 1942],+++ (+++ is >60+)
18,Cc1cccc(C)c1-c1cc2nc(n1)NS(=O)(=O)c1cccc(c1)C(=O)N(Cc1cncc(N3CCCO[C@H]4CC[C@H]43)n1)[C@H](CC(C)(C)C)CO2 (stereo in doubt) [Compound 1951],+++ (+++ is >60+)
19,Cc1cccc(C)c1-c1cc2nc(n1)NS(=O)(=O)c1cccc(c1)C(=O)N(Cc1cncc(N3CCCO[C@H]4CC[C@H]43)n1)[C@H](CC(C)(C)C)CO2 (stereo in doubt) [Compound 1952],+++ (+++ is >60+)

# Same assay, conditions: 3 μM; F508del/MF-HBE cells; with 44 nM potentiator; 18-24 hours; 20% human serum
row,SMILES,HBE2 Activity at 3 μM (%)
1,Cc1cccc(C)c1-c1cc2nc(n1)NS(=O)(=O)c1cccc(c1)CN(Cc1ncc(OC(C)C)cn1)[C@H](CC(C)(C)C)CO2 [Compound 1298],++ (++ is 30-60%)
2,"CCc1ccnc(CN2C(=O)c3cccc(c3)S(=O)(=O)Nc3nc(cc(-c4c(C)cccc4C)n3)OC[C@H]2CC(C)(C)C)n1 [Compound 1302, (11R)-6-(2,6-Dimethylphenyl)-11-(2,2-dimethylpropyl)-12-[(4-ethylpyrimidin-2-yl)methyl]-2,2-dioxo-9-oxa-2λ^6-thia-3,5,12,19-tetrazatricyclo[12.3.1.14,8]nonadeca-1(18),4,6,8(19),14,16-hexaen-13-one]",+++ (+++ is >60+)
3,"Cc1cccc(C)c1-c1cc2nc(n1)NS(=O)(=O)c1cccc(c1)C(=O)N(Cc1ncc(OC3CCCC3)c[n+]1[O-])[C@H](CC(C)C)CO2 [Compound 1305, (11R)-12-[[5-(Cyclopentoxy)-1-oxido-pyrimidin-1-ium-2-yl]methyl]-6-(2,6-dimethylphenyl)-11-isobutyl-2,2-dioxo-9-oxa-2λ^6-thia-3,5,12,19-tetrazatricyclo[12.3.1.14,8]nonadeca-1(18),4(19),5,7,14,16-hexaen-13-one]",+++ (+++ is >60+)
4,"Cc1cccc(C)c1-c1cc2nc(n1)NS(=O)(=O)c1cccc(c1)C(=O)N(Cc1cncc(N(C)C3CCC3)n1)[C@H](CC(C)(C)C)CO2 [Compound 1310, (11R)-12-[[6-[Cyclobutyl(methyl)amino]pyrazin-2-yl]methyl]-6-(2,6-dimethylphenyl)-11-(2,2-dimethylpropyl)-2,2-dioxo-9-oxa-2λ^6-thia-3,5,12,19-tetrazatricyclo[12.3.1.14,8]nonadeca-1(18),4(19),5,7,14,16-hexaen-13-one]",+++ (+++ is >60+)
5,"Cc1cccc(C)c1-c1cc2nc(n1)NS(=O)(=O)c1cccc(c1)C(=O)N(Cc1ncc(N3CCC(C)(C)CC3)cn1)[C@H](CCC1CC1)CO2 [Compound 1311, (11R)-11-(2-Cyclopropylethyl)-6-(2,6-dimethylphenyl)-12-[[5-(4,4-dimethyl-1-piperidyl)pyrimidin-2-yl]methyl]-2,2-dioxo-9-oxa-2^6-thia-3,5,12,19-tetrazatricyclo[12.3.1.14,8]nonadeca-1(18),4(19),5,7,14,16-hexaen-13-one]",+++ (+++ is >60+)

# Same assay, conditions: F508del/MF-HBE cells; with 44 nM potentiator; 18-24 hours; 20% human serum
row,SMILES,EC50 [nM]
1,"Cc1cccc(C)c1-c1cc2nc(n1)NS(=O)(=O)c1cccc(c1)C(=O)N(Cc1cncc(N(C)C3CCC3)n1)[C@H](CC(C)(C)C)CO2 [Compound 1310, (11R)-12-[[6-[Cyclobutyl(methyl)amino]pyrazin-2-yl]methyl]-6-(2,6-dimethylphenyl)-11-(2,2-dimethylpropyl)-2,2-dioxo-9-oxa-2λ^6-thia-3,5,12,19-tetrazatricyclo[12.3.1.14,8]nonadeca-1(18),4(19),5,7,14,16-hexaen-13-one]",< 1000

# Same assay, conditions: F508del/MF-HBE cells; with 44 nM potentiator; 18-24 hours; 20% human serum; read-out: HBE2 Max activity (%)
row,SMILES,Emax [%]
1,"Cc1cccc(C)c1-c1cc2nc(n1)NS(=O)(=O)c1cccc(c1)C(=O)N(Cc1cncc(N(C)C3CCC3)n1)[C@H](CC(C)(C)C)CO2 [Compound 1310, (11R)-12-[[6-[Cyclobutyl(methyl)amino]pyrazin-2-yl]methyl]-6-(2,6-dimethylphenyl)-11-(2,2-dimethylpropyl)-2,2-dioxo-9-oxa-2λ^6-thia-3,5,12,19-tetrazatricyclo[12.3.1.14,8]nonadeca-1(18),4(19),5,7,14,16-hexaen-13-one]",> 60
